#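 Compound exposure: 48 hours, 5 concentrations, 96-well plates. The concentration for 50% growth inhibition is given as GI50.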 Active and inactive are the calls of the source. No stated cut-off is given here; in the data, active = GI50 up to about 1.1 µM and inactive = higher.
# Tests used:
# Experiment in all cases: inhibition of tumour cell growth, NCI panel, 48 h
# [1] = test system: XF498
# [2] = test system: SF-295
# [3] = test system: TK-10
# [4] = test system: 786-0
# [5] = test system: HT-29
# [6] = test system: UO-31
# [7] = test system: UACC-62
# [8] = test system: U-251
# [9] = test system: HOP-18
# [10] = test system: EKVX
# [11] = test system: KM-20L2
# [12] = test system: HOP-92
# [13] = test system: Malme-3M
# [14] = test system: COLO 205
# [15] = test system: SF-539
# [16] = test system: NCI-H23
# [17] = test system: DLD-1
# [18] = test system: SR
# [19] = test system: SK-MEL-5
# [20] = test system: SK-OV-3
# [21] = test system: DMS-114
# [22] = test system: K562
# [23] = test system: SNB-19
# [24] = test system: HCT-15
# [25] = test system: OVCAR-4
# [26] = test system: OVCAR-8
# [27] = test system: HL-60
# [28] = test system: SK-MEL-28
# [29] = test system: HCT-116
# [30] = test system: IGROV-1
# [31] = test system: RPMI-8226
# [32] = test system: OVCAR-3
# [33] = test system: SN12C
# [34] = test system: M19-MEL
# [35] = test system: CCRF-CEM
# [36] = test system: SW-620
# [37] = test system: LXFL 529
# [38] = test system: SNB-75
# [39] = test system: HCC 2998
# [40] = test system: OVCAR-5
# [41] = test system: DMS-273
# [42] = test system: MOLT-4
# [43] = test system: SK-MEL-2
# [44] = test system: CAKI-1
# [45] = test system: NCI-H522
# [46] = test system: SF-268
# [47] = test system: NCI-H226
# [48] = test system: A549
# [49] = test system: ACHN
# [50] = test system: HOP-62
# [51] = test system: M14
# [52] = test system: UACC-257
# [53] = test system: SNB-78
# [54] = test system: A498
# [55] = test system: RXF 393
# [56] = test system: NCI-H460
# [57] = test system: LOX IMVI
# [58] = test system: KM12
# [59] = test system: NCI/ADR-RES
# [60] = test system: MCF7
compound,measurement,setting,value
COc1ccc2cc3n(c(=O)c2c1)CCc1c-3cc(OC)c(OC)c1OC,GI50,[1],50.7 µM (inactive)
same,GI50,[2],> 100 µM (inactive)
same,GI50,[3],> 100 µM (inactive)
same,GI50,[4],> 100 µM (inactive)
same,GI50,[5],> 100 µM (inactive)
same,GI50,[6],> 100 µM (inactive)
same,GI50,[7],> 100 µM (inactive)
same,GI50,[8],50.6 µM (inactive)
same,GI50,[9],> 100 µM (inactive)
same,GI50,[10],> 100 µM (inactive)
same,GI50,[11],> 100 µM (inactive)
same,GI50,[12],> 100 µM (inactive)
same,GI50,[13],> 100 µM (inactive)
same,GI50,[14],> 100 µM (inactive)
same,GI50,[15],60 µM (inactive)
same,GI50,[16],> 100 µM (inactive)
same,GI50,[17],> 100 µM (inactive)
same,GI50,[18],> 100 µM (inactive)
same,GI50,[19],> 100 µM (inactive)
same,GI50,[20],> 100 µM (inactive)
same,GI50,[21],> 100 µM (inactive)
same,GI50,[22],> 100 µM (inactive)
same,GI50,[23],> 100 µM (inactive)
same,GI50,[24],> 100 µM
same,GI50,[25],> 100 µM (inactive)
same,GI50,[26],> 100 µM (inactive)
same,GI50,[27],> 100 µM (inactive)
same,GI50,[28],> 100 µM (inactive)
same,GI50,[29],> 100 µM (inactive)
same,GI50,[30],> 100 µM (inactive)
same,GI50,[31],> 100 µM (inactive)
same,GI50,[32],> 100 µM (inactive)
same,GI50,[33],> 100 µM (inactive)
same,GI50,[34],> 100 µM (inactive)
same,GI50,[35],> 100 µM (inactive)
same,GI50,[36],> 100 µM (inactive)
same,GI50,[37],> 100 µM (inactive)
same,GI50,[38],34.7 µM (inactive)
same,GI50,[39],> 100 µM (inactive)
same,GI50,[40],> 100 µM (inactive)
same,GI50,[41],> 100 µM (inactive)
same,GI50,[42],> 100 µM (inactive)
same,GI50,[43],56 µM (inactive)
same,GI50,[44],> 100 µM (inactive)
same,GI50,[45],> 100 µM (inactive)
same,GI50,[46],> 100 µM (inactive)
same,GI50,[47],> 100 µM (inactive)
same,GI50,[48],> 100 µM (inactive)
same,GI50,[49],> 100 µM (inactive)
same,GI50,[50],68.1 µM (inactive)
same,GI50,[51],> 100 µM (inactive)
same,GI50,[52],> 100 µM (inactive)
same,GI50,[53],> 100 µM (inactive)
CC(=O)OCc1ncccc1C(OC(C)=O)OC(C)=O,GI50,[1],> 100 µM (inactive)
same,GI50,[2],> 100 µM (inactive)
same,GI50,[3],> 100 µM (inactive)
same,GI50,[4],> 100 µM (inactive)
same,GI50,[5],> 100 µM (inactive)
same,GI50,[54],> 100 µM (inactive)
same,GI50,[55],> 100 µM (inactive)
same,GI50,[6],> 100 µM (inactive)
same,GI50,[7],> 100 µM (inactive)
same,GI50,[8],> 100 µM (inactive)
same,GI50,[9],> 100 µM (inactive)
same,GI50,[10],> 100 µM (inactive)
same,GI50,[11],> 100 µM (inactive)
same,GI50,[12],> 100 µM (inactive)
same,GI50,[13],> 100 µM (inactive)
same,GI50,[14],> 100 µM (inactive)
same,GI50,[15],> 100 µM (inactive)
same,GI50,[16],> 100 µM (inactive)
same,GI50,[17],> 100 µM (inactive)
same,GI50,[18],> 100 µM (inactive)
same,GI50,[19],> 100 µM (inactive)
same,GI50,[20],> 100 µM (inactive)
same,GI50,[21],> 100 µM (inactive)
same,GI50,[22],> 100 µM (inactive)
same,GI50,[23],> 100 µM (inactive)
same,GI50,[24],> 100 µM
same,GI50,[25],> 100 µM (inactive)
same,GI50,[26],> 100 µM (inactive)
same,GI50,[27],> 100 µM (inactive)
same,GI50,[28],> 100 µM (inactive)
same,GI50,[29],> 100 µM (inactive)
same,GI50,[30],> 100 µM (inactive)
same,GI50,[32],> 100 µM (inactive)
same,GI50,[33],> 100 µM (inactive)
same,GI50,[34],> 100 µM (inactive)
same,GI50,[35],> 100 µM (inactive)
same,GI50,[36],> 100 µM (inactive)
same,GI50,[37],> 100 µM (inactive)
same,GI50,[56],> 100 µM (inactive)
same,GI50,[38],> 100 µM (inactive)
same,GI50,[57],> 100 µM (inactive)
same,GI50,[58],> 100 µM (inactive)
same,GI50,[40],> 100 µM (inactive)
same,GI50,[41],> 100 µM (inactive)
same,GI50,[42],> 100 µM (inactive)
same,GI50,[43],> 100 µM (inactive)
same,GI50,[44],> 100 µM (inactive)
same,GI50,[45],> 100 µM (inactive)
same,GI50,[46],> 100 µM (inactive)
same,GI50,[48],> 100 µM (inactive)
same,GI50,[49],> 100 µM (inactive)
same,GI50,[50],> 100 µM (inactive)
same,GI50,[51],> 100 µM (inactive)
same,GI50,[52],> 100 µM (inactive)
same,GI50,[53],> 100 µM (inactive)
Nc1cc2c(cc1[N+](=O)[O-])[nH]c1c(-c3ccccc3)nccc12,GI50,[1],40 µM (inactive)
same,GI50,[2],21.7 µM (inactive)
same,GI50,[5],14.5 µM (inactive)
same,GI50,[59],14.1 µM (inactive)
same,GI50,[54],30.5 µM (inactive)
same,GI50,[55],19.9 µM (inactive)
same,GI50,[6],5.77 µM (inactive)
same,GI50,[7],13.6 µM (inactive)
same,GI50,[8],18.8 µM (inactive)
same,GI50,[9],8.41 µM (inactive)
same,GI50,[10],21.7 µM (inactive)
same,GI50,[11],23.6 µM (inactive)
same,GI50,[12],12 µM (inactive)
same,GI50,[13],17.4 µM (inactive)
same,GI50,[14],20.7 µM (inactive)
same,GI50,[15],24.4 µM (inactive)
same,GI50,[16],18.7 µM (inactive)
same,GI50,[17],8.2 µM (inactive)
same,GI50,[19],13.5 µM (inactive)
same,GI50,[20],10.9 µM (inactive)
same,GI50,[21],12.7 µM (inactive)
same,GI50,[22],7.57 µM (inactive)
same,GI50,[23],23.8 µM (inactive)
same,GI50,[24],12 µM
same,GI50,[25],12.8 µM (inactive)
same,GI50,[26],30.8 µM (inactive)
same,GI50,[27],11.8 µM (inactive)
same,GI50,[28],27.1 µM (inactive)
same,GI50,[29],15.3 µM (inactive)
same,GI50,[30],8.65 µM (inactive)
same,GI50,[31],8.24 µM (inactive)
same,GI50,[32],19.1 µM (inactive)
same,GI50,[33],22.3 µM (inactive)
same,GI50,[34],17.7 µM (inactive)
same,GI50,[35],7.71 µM (inactive)
same,GI50,[36],25.9 µM (inactive)
same,GI50,[56],15.8 µM (inactive)
same,GI50,[38],19.2 µM (inactive)
same,GI50,[57],13.6 µM (inactive)
same,GI50,[58],15.8 µM (inactive)
same,GI50,[39],13.2 µM (inactive)
same,GI50,[40],27.1 µM (inactive)
same,GI50,[41],18.1 µM (inactive)
same,GI50,[42],4.43 µM (inactive)
same,GI50,[43],20.2 µM (inactive)
same,GI50,[45],12 µM (inactive)
same,GI50,[46],25.2 µM (inactive)
same,GI50,[47],17 µM (inactive)
same,GI50,[48],17.4 µM (inactive)
same,GI50,[50],15.2 µM (inactive)
same,GI50,[52],18 µM (inactive)
same,GI50,[53],11.2 µM (inactive)
same,GI50,[60],26 µM (inactive)

# Source: ChEMBL document CHEMBL1201862, “PubChem BioAssay data set” (2004)
